Key:
Type in all cases: cell-based, rat
[1] = tested on: myoblasts isolated from the WT EOMs; experiment: Myogenic differentiation (MF20 staining, fusion index) of EOM myoblasts; settings: 10 μM, 7 days, vs DMSO
Protocol: For this, the cells were fixed with 4% PFA for 10 minutes at 4° C. and permeabilized with 0.5% Triton in 1×PBS for 6 minutes. After blocking with 10% BSA for 30 minutes at room temperature, the cells were incubated O/N at 4° C. with the following primary antibodies: Pax7 (Santa Cruz Biotechnology, sc-81648), MyoD (Dako, clone 5.8A, M3512), ki67 (Abcam, sp6 ab16667), sarcomeric myosin heavy chain (MF20, DSHB, AB_2147781).
The cell suspension was passed through cell filters and centrifuged at 600 g/minute for 5 minutes, at 4° C. The supernatant was removed and the cell pellet was resuspended in 20% fetal bovine serum (Cat #S1810-500 Dominique Dutscher) in DMEM (Cat #41966-029 Gibco) supplemented by 25 ng/mL of bFGF (RP4037, Sigma-Aldrich) with […] of penicillin/streptomycin (354234, Life Sciences) covered with matrigel (Sarstedt, #94.6140.802). The cells were grown for 48 hours to evaluate the proliferation. After 48 h of proliferation, the cells were cultured for 5 days in 5% fetal bovine serum to induce differentiation.
(§1) For this, the myoblasts derived from MSC were treated with 10 μM of ML224 (HY12381-S, CliniSciences) for 2 days (proliferation) or 7 days (differentiation) or 20 μM of forskolin (F3917, Sigma-Aldrich) (following experiment) only for 48 h. The control cells were treated with DMSO (D8418, Sigma Aldrich) as a vehicle for ML224 and forskolin.

[2] = tested on: myoblasts isolated from the WT EOMs; experiment: EdU proliferation of EOM-derived myoblasts treated with TSHR antagonist; settings: 10 μM, 2 days, serum-free, EdU pulse 24 h, vs DMSO
Protocol: To evaluate the functional importance of the expression of TSHR in the MSCs of the EOMs, the myoblasts were isolated from the WT EOMs and treated with a selective antagonist of the TSH receptor, ML224 (Neumann et al., 2014).
as §1
The proliferation was measured after 24 h of culture by adding to the culture medium a pulse of […] of 5-ethynyl-20-deoxyuridine (EdU) for 24 h (EdU Click-iT PLUS Kit C10640, Life Technologies).
This experiment is carried out under serum-free conditions in order to prevent any stimulation of TSHR by the presence of TSH in the serum, which explains the lowest proliferative capacity of the myoblasts of the EOMs treated with the vehicle, relative to the data presented above (FIG. 3I).

[3] = tested on: Cdkn1a (p21) and Cdkn2a (p16) expression in EOM-derived myoblasts; experiment: qPCR of senescence markers in EOM-derived myoblasts; settings: EOM satellite cells in culture, 10 μM, vs DMSO
Protocol: The absence of Cdkn1a and Cdkn2a transcripts is also validated as well as the specific expression of TSHR on muscle satellite cells freshly isolated from EOMs by qRT-PCR (FIG. 6D): The RNA is extracted using the total RNA isolation kit RNAqueous-Micro (Invitrogen) and back-transcribed using SuperScript™ III reverse transcriptase (Invitrogen, 18080093) according to the manufacturer's instructions.
The qPCR is carried out using the StepOnePlus real-time PCR system (Applied Biosystems) and SYBR Green detection tools (Applied Biosystems).
The results are reported as relative gene expression (2-DDCT) using the vehicle-treated cells or the extra-ocular derived myoblasts as a reference. Gene expression is normalized on the expression levels of β-actin.
as §1

COc1ccc(C2Nc3ccccc3C(=O)N2Cc2ccco2)cc1COc1c(C)cc(NC(C)=O)cc1C (centres unmarked) [ML224]
Differentiation / formation of myotubes [1]: differentiation defects
Fusion index compared to vehicle control [1]: significant reduction
Proliferative myoblasts (Pax7+/MyoD+/EdU+ cells) relative to vehicle [2]: significant decrease
Expression of Cdkn1a (p21) [3]: induced the expression
Expression of Cdkn2a (p16) [3]: induced the expression
